In this test the test system is L1210 leukemia ip in BDF1 mice, survival T/C. Kind of test: NCI In Vivo Anticancer Drug Screen. Data for tumor model L1210 Leukemia (intraperitoneal) in B6D2F1 (BDF1) mice. The conditions noted are these: endpoint: mean survival time, higher = longer survival. In a few lines:
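Ratio derived from survival: compound-dosed mice over vehicle-dosed mice, all bearing a transplantable tumor.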

Setting [1] is: dose: 25.0 mg/kg/injection, schedule: Q01DX009 (ip), vehicle: Klucel (hydroxypropylcellulose) (HPC).
Setting [2] is: dose: 25.0 mg/kg/injection, schedule: Q04DX003 (ip), vehicle: Klucel (hydroxypropylcellulose) (HPC).
[3] abbreviates: dose: 50.0 mg/kg/injection, schedule: Q01DX009 (ip), vehicle: Klucel (hydroxypropylcellulose) (HPC).
Where [4] appears, read: dose: 50.0 mg/kg/injection, schedule: Q04DX003 (ip), vehicle: Klucel (hydroxypropylcellulose) (HPC).
Where [5] appears, read: dose: 100.0 mg/kg/injection, schedule: Q01DX009 (ip), vehicle: Klucel (hydroxypropylcellulose) (HPC).
Setting [6] is: dose: 100.0 mg/kg/injection, schedule: Q04DX003 (ip), vehicle: Klucel (hydroxypropylcellulose) (HPC).
[7] abbreviates: dose: 200.0 mg/kg/injection, schedule: Q04DX003 (ip), vehicle: Klucel (hydroxypropylcellulose) (HPC).
[8] abbreviates: dose: 400.0 mg/kg/injection, schedule: Q04DX003 (ip), vehicle: Klucel (hydroxypropylcellulose) (HPC).
Setting [9] is: dose: 100.0 mg/kg/injection, schedule: Q01DX009 (ip), vehicle: saline with Tween-80.
The mark [10] stands for this setting: dose: 100.0 mg/kg/injection, schedule: Q04DX003 (ip), vehicle: saline with Tween-80.
[11] abbreviates: dose: 200.0 mg/kg/injection, schedule: Q01DX009 (ip), vehicle: saline with Tween-80.
[12] abbreviates: dose: 200.0 mg/kg/injection, schedule: Q04DX003 (ip), vehicle: saline with Tween-80.
The mark [13] stands for this setting: dose: 400.0 mg/kg/injection, schedule: Q01DX009 (ip), vehicle: saline with Tween-80.
The mark [14] stands for this setting: dose: 400.0 mg/kg/injection, schedule: Q04DX003 (ip), vehicle: saline with Tween-80.
[15] abbreviates: dose: 50.0 mg/kg/injection, schedule: Q01DX009 (ip), vehicle: saline.
The mark [16] stands for this setting: dose: 100.0 mg/kg/injection, schedule: Q01DX009 (ip), vehicle: saline.

Molecules are shown by their SMILES. Several values for one entry are separate records, joined by “and”; a condition that tells them apart may be missing. Identical values can stand only once. Toxic doses and inconclusive results are not listed.

For `C/C=C/c1ccccc1C(C)=O`, the T/C reads like this: (dose: 100.0 mg/kg/injection, schedule: Q04DX003 (sc), vehicle: olive oil, sesame oil, peanut oil) 105 % of control; (dose: 200.0 mg/kg/injection, schedule: Q04DX003 (sc), vehicle: olive oil, sesame oil, peanut oil) 105 % of control; (dose: 400.0 mg/kg/injection, schedule: Q04DX003 (sc), vehicle: olive oil, sesame oil, peanut oil) 100 % of control.

In the case of `C#CCC1(OC(N)=O)CCCCC1`, the T/C was 96 % of control under setting [1]; 102 % of control under setting [2]; 96 % of control under setting [3]; 110 % of control under setting [4]; 110 % of control under setting [5]; 100 % of control under setting [6]. Further, the T/C (dose: 200.0 mg/kg/injection, schedule: Q01DX009 (ip), vehicle: Klucel (hydroxypropylcellulose) (HPC)) was 87 % of control; the T/C under setting [7] was 107 % of control; the T/C under setting [8] is 94 % of control.

For `O=C(/C=C/c1ccc(Br)cc1)c1ccc(Cl)cc1`, the T/C was 96 % of control under setting [9]; 96 % of control under setting [10]; 96 % of control under setting [11]; 91 % of control under setting [12]; 94 % of control under setting [13]; 92 % of control under setting [14].

On to `O=C(NC(=S)Nc1cccc2ccc(O)cc12)c1ccc(Cl)cc1Cl`, for which the T/C is, setting by setting: (dose: 100.0 mg/kg/injection, schedule: Q01DX001 (ip), vehicle: saline with Tween-80) 101 % of control; under setting [9], 94 % of control and 106 % of control; (dose: 100.0 mg/kg/injection, schedule: Q04DX002 (ip), vehicle: saline with Tween-80) 103 % of control and 92 % of control; under setting [10], 100 % of control; (dose: 200.0 mg/kg/injection, schedule: Q01DX001 (ip), vehicle: saline with Tween-80) 92 % of control; under setting [11], 98 % of control and 101 % of control. For the same molecule, the T/C reads like this: (dose: 200.0 mg/kg/injection, schedule: Q04DX002 (ip), vehicle: saline with Tween-80) 95 % of control and 103 % of control; under setting [12], 97 % of control; (dose: 400.0 mg/kg/injection, schedule: Q01DX001 (ip), vehicle: saline with Tween-80) 103 % of control; under setting [13], 103 % of control and 108 % of control; (dose: 400.0 mg/kg/injection, schedule: Q04DX002 (ip), vehicle: saline with Tween-80) 97 % of control and 98 % of control; under setting [14], 92 % of control.

For the molecule `CC1(C)N=C(N)N=C(N)N1c1ccc(CNC(=O)Nc2cccc(S(=O)(=O)F)c2)cc1`, the T/C by setting is: (dose: 6.25 mg/kg/injection, schedule: Q01DX009 (ip), vehicle: saline) 116 % of control; (dose: 12.5 mg/kg/injection, schedule: Q01DX009 (ip), vehicle: saline) 119 % of control; under setting [15], 154 % of control; (dose: 88.0 mg/kg/injection, schedule: Q04DX003 (ip), vehicle: saline) 113 % of control.

As to `CC1(C)Oc2ccccc2O1`, the T/C under setting [10] was 93 % of control.

As for `Cc1ccccc1OC(F)(F)C(F)Cl` (stereo unspecified), the T/C by setting is: under setting [9], 103 % of control; under setting [10], 96 % of control; under setting [11], 91 % of control; under setting [12], 94 % of control; under setting [13], 86 % of control; under setting [14], 96 % of control.

For the molecule `CC(=O)Nc1cc(NC(C)=O)cc(N(CCO)CCO)c1`, the T/C (dose: 25.0 mg/kg/injection, schedule: Q01DX009 (ip), vehicle: water) is 97 % of control; the T/C (dose: 50.0 mg/kg/injection, schedule: Q01DX009 (ip), vehicle: water) was 100 % of control; the T/C (dose: 100.0 mg/kg/injection, schedule: Q01DX009 (ip), vehicle: water) was 106 % of control; the T/C (dose: 400.0 mg/kg/injection, schedule: Q01DX009 (ip), vehicle: water) was 106 % of control.

With `O=C1c2cccc3c([N+](=O)[O-])ccc(c23)C(=O)N1CCCN1CCOCC1`, the T/C is 104 % of control under setting [1]; 98 % of control under setting [3]; 93 % of control and 87 % of control under setting [5].

As for `c1ccc(OP(Oc2ccccc2)c2ccccc2)cc1`, the T/C under setting [16] was 108 % of control; the T/C under setting [6] is 105 % of control; the T/C (dose: 200.0 mg/kg/injection, schedule: Q01DX009 (ip), vehicle: saline) was 115 % of control; the T/C under setting [7] is 102 % of control; the T/C under setting [8] is 98 % of control.

Turning to `CN(C)CC1C2C=CC(C3CC23)C1CN(C)C` (stereo unspecified), the T/C was 113 % of control under setting [1]; 94 % of control under setting [2]; 107 % of control under setting [3]; 102 % of control under setting [4]; 108 % of control under setting [5]; 94 % of control and 92 % of control under setting [6]. The T/C under setting [7] was 89 % of control.

In the case of `O=[N+]([O-])c1cccc(/C=[N+](\[O-])c2ccccc2)c1`, the T/C is 100 % of control (dose: 50.0 mg/kg/injection, schedule: Q01DX001 (ip), vehicle: saline); 96 % of control (dose: 100.0 mg/kg/injection, schedule: Q01DX001 (ip), vehicle: saline); 100 % of control (dose: 200.0 mg/kg/injection, schedule: Q01DX001 (ip), vehicle: saline); 102 % of control (dose: 400.0 mg/kg/injection, schedule: Q01DX001 (ip), vehicle: saline).

Consider `Cc1nnc(NN)nc1C`, for which the T/C (dose: 6.25 mg/kg/injection, schedule: Q01DX009 (ip), vehicle: saline with Tween-80) was 101 % of control; the T/C (dose: 6.25 mg/kg/injection, schedule: Q04DX003 (ip), vehicle: saline with Tween-80) was 100 % of control; the T/C (dose: 12.5 mg/kg/injection, schedule: Q01DX001 (ip), vehicle: saline with Tween-80) is 112 % of control; the T/C (dose: 12.5 mg/kg/injection, schedule: Q01DX009 (ip), vehicle: saline with Tween-80) was 103 % of control; the T/C (dose: 12.5 mg/kg/injection, schedule: Q04DX003 (ip), vehicle: saline with Tween-80) is 103 % of control; the T/C (dose: 25.0 mg/kg/injection, schedule: Q01DX001 (ip), vehicle: saline with Tween-80) was 100 % of control. The T/C (dose: 25.0 mg/kg/injection, schedule: Q04DX003 (ip), vehicle: saline with Tween-80) was 95 % of control.

Turning to `CC1C(=O)CC(c2ccccc2)N(C)C1c1ccccc1` (stereo unspecified), the T/C (dose: 75.0 mg/kg/injection, schedule: Q01DX001 (ip), vehicle: saline) is 96 % of control; the T/C (dose: 75.0 mg/kg/injection, schedule: Q04DX003 (ip), vehicle: acetone) was 93 % of control; the T/C (dose: 150.0 mg/kg/injection, schedule: Q01DX001 (ip), vehicle: saline) was 91 % of control; the T/C (dose: 150.0 mg/kg/injection, schedule: Q04DX003 (ip), vehicle: acetone) was 98 % of control; the T/C (dose: 300.0 mg/kg/injection, schedule: Q01DX001 (ip), vehicle: saline) was 100 % of control; the T/C (dose: 300.0 mg/kg/injection, schedule: Q04DX003 (ip), vehicle: acetone) is 96 % of control.

Regarding `C[S+](C)C12CC3CC(CC(C3)C1)C2`, the T/C runs as follows: (dose: 25.0 mg/kg/injection, schedule: Q01DX009 (ip), vehicle: saline) 108 % of control; (dose: 25.0 mg/kg/injection, schedule: Q04DX002 (ip), vehicle: saline) 102 % of control; under setting [15], 94 % of control; (dose: 50.0 mg/kg/injection, schedule: Q04DX002 (ip), vehicle: saline) 102 % of control; under setting [16], 86 % of control; (dose: 100.0 mg/kg/injection, schedule: Q04DX002 (ip), vehicle: saline) 94 % of control and 96 % of control.

In the case of `CC(C)OC(=S)SCC(=O)c1ccc(-c2ccccc2)cc1`, the T/C is 96 % of control (dose: 100.0 mg/kg/injection, schedule: Q04DX002 (ip), vehicle: Klucel (hydroxypropylcellulose) (HPC)); 92 % of control (dose: 200.0 mg/kg/injection, schedule: Q04DX002 (ip), vehicle: Klucel (hydroxypropylcellulose) (HPC)); 96 % of control (dose: 400.0 mg/kg/injection, schedule: Q04DX002 (ip), vehicle: Klucel (hydroxypropylcellulose) (HPC)).

Source of the values: PubChem BioAssay AID248 (DTP/NCI, 2004).
